Tests used:
Type in all cases: biochemical
human TG1 = molecular target: T1, human TG1 (Homo sapiens, UniProt P22735); assay: Inhibition of recombinant Transglutaminase activity (fluorescent substrate), human TG1; conditions: human recombinant TG1, Fig 2B; read-out: IC50 to inhibit TG1
T1 construct: purchased Zedira
T1 sequence (P22735 1-817): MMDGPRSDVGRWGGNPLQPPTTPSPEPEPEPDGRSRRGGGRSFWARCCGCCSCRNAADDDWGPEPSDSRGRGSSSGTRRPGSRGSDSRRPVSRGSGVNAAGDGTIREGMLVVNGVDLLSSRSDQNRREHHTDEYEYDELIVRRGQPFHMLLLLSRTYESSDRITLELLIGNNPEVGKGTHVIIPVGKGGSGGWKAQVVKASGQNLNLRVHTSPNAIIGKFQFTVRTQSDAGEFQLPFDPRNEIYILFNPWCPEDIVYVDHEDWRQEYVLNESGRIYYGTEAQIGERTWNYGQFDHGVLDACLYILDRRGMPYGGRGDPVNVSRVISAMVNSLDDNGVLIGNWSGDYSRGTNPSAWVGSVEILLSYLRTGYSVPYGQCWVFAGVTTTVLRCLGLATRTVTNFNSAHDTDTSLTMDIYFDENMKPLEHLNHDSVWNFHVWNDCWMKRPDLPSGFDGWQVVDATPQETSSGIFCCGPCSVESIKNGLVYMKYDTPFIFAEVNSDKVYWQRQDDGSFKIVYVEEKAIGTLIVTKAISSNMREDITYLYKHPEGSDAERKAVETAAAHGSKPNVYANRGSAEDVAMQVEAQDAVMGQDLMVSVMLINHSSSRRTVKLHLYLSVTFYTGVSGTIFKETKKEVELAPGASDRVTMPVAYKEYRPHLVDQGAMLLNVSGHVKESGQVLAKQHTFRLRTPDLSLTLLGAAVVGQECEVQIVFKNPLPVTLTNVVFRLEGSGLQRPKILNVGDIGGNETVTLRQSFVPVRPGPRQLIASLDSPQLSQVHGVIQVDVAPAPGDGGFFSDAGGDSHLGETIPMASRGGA
Experimental: (§1) The potency and specificity of TG2 inhibitors was assessed with various recombinant TGs, as previously described. The reaction buffer (50 mM Tris, 100 mM NaCl, 10 mM CaCl2, 5 mM H-Gly-OMe*HCl (glycinemethylestherhydrochloride, Sigma), 5 mM hexadimethinbromide (Sigma), 9.1 mM DTT, pH 7.5) was heated to 37°C in a 96 well plate. Then 50 μM of the TG substrate Abz-NE(CAD-DNP)EQVSPLTLLK-OH (Zedira) was added. 1 μg/ml recombinant TG (human TG1, human (hTG2) / mouse TG2 (mTG2) or human Factor XIII (FXIII); Zedira) were added. The two lyophilized TG2 inhibitors (see Fig 1 for chemical structure) BJJF078 (3,4-Dimethoxy-N-(5-[4-(acryloylamino)piperidine-1-sulfonyl]-naphthalen-1-yl)-benzamide, kindly provided by Dr S. El Alaoui, Covalab, France) and ERW1041E (2-[(3-Bromo-4,5-dihydro-isoxazol-5-ylmethyl)-carbamoyl]-pyrrolidine-1—carboxylic acid quinolin-3-ylmethyl ester, kindly provided by Prof C. Khosla, Stanford University, USA) were dissolved in DMSO (stock solution: 54 mM) and stored at -80°C. These stocks were further diluted and various concentrations of the TG2 inhibitors (0.3 nM to 100 μM), were added to the wells (final DMSO concentration per well: 0.06%). The relative increase in fluorescence emission, correlating with enzymatic activity, was measured over 4 h with a fluorimeter (Excitation: 320nm, emission: 405 nm; Fluostar, GMB).

[1] = molecular target: T2, recombinant human TG2 (hTG2) (Homo sapiens, UniProt P21980); assay: Inhibition of recombinant Transglutaminase activity (fluorescent substrate), human TG2; conditions: recombinant human TG2, Fig 2A
T2 construct: purchased Zedira
T2 sequence (P21980 1-687): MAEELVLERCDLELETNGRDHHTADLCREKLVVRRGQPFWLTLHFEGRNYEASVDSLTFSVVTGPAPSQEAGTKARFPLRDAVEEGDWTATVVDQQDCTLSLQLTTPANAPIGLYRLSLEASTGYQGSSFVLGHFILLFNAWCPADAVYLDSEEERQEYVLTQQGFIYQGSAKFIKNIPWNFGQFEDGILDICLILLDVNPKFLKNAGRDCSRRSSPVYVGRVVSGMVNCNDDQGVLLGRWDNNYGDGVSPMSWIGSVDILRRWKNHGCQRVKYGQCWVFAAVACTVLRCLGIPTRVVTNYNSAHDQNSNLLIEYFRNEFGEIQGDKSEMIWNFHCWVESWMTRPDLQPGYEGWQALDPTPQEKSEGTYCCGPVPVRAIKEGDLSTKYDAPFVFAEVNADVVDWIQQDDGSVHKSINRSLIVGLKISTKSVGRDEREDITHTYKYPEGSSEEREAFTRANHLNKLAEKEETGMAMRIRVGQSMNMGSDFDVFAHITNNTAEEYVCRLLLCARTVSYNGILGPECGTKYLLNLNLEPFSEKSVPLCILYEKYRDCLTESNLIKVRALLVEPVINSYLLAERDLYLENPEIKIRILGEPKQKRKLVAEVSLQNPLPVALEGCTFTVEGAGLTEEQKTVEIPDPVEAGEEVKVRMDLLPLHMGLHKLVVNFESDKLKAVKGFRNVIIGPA
Experimental: as §1

[2] = molecular target: T3, recombinant mouse TG2 (mTG2) (Mus musculus, UniProt P21981); assay: Inhibition of recombinant Transglutaminase activity (fluorescent substrate), mouse TG2; conditions: recombinant mouse TG2, Fig 2A
T3 construct: purchased Zedira
T3 sequence (P21981 1-686): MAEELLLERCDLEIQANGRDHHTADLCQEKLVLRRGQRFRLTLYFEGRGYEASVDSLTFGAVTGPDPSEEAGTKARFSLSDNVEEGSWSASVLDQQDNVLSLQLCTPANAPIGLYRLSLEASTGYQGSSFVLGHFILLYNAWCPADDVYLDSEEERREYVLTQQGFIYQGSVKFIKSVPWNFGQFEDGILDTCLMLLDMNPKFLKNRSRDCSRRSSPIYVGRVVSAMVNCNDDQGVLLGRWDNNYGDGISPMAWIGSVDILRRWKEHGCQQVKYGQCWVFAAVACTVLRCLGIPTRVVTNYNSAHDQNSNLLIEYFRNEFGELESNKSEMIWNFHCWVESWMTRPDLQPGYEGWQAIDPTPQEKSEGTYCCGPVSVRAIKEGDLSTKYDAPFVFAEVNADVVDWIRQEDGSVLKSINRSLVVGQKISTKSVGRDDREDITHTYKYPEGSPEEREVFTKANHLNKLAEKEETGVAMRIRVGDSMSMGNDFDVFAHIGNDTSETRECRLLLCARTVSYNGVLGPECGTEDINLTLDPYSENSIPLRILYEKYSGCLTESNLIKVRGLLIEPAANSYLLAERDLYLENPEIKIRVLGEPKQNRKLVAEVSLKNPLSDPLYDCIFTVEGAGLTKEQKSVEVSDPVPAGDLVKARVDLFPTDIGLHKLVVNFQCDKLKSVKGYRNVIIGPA
Experimental: as §1

Row | Structure (SMILES) | IC50 (human TG1) | IC50 [1] | IC50 [2]
1 | C=CC(=O)NC1CCN(S(=O)(=O)c2cccc3c(NC(=O)c4ccc(OC)c(OC)c4)cccc23)CC1 [BJJF078, 3,4-Dimethoxy-N-(5-[4-(acryloylamino)piperidine-1-sulfonyl]-naphthalen-1-yl)-benzamide] | 160 nM | 41 nM | 0.054 µM
2 | O=C(NCC1CC(Br)=NO1)C1CCCN1C(=O)OCc1cnc2ccccc2c1 (stereo not drawn) [ERW1041E, 2-[(3-Bromo-4,5-dihydro-isoxazol-5-ylmethyl)-carbamoyl]-pyrrolidine-1—carboxylic acid quinolin-3-ylmethyl ester] | 440 nM | 1600 nM | 6.8 µM

Reference: PMC5918173, “Characterization of Transglutaminase 2 activity inhibitors in monocytes in vitro and their effect in a mouse model for multiple sclerosis” (PLoS ONE, 2018)
